From patent publication US10745397B2, “1-Substituted 1,2,3,4-tetrahydro-1,7-naphthyridin-8-amine derivatives and their use as EP4 receptor antagonists” (TAKEDA PHARMACEUTICAL COMPANY LIMITED, priority 2015, dated 2020)

Key:
[1] = target: T1, human EP4 receptor (Homo sapiens, UniProt P35408); assay: hEP4 radioligand binding assay ([3H] PGE2 competitive binding, membrane fractions); details: 300 nM compound; 1 nM [3H] PGE2
T1 construct: expressed in transfected cells; host or cells: FreeStyle293 (HEK293F) cells, transient transfection with pcDNA3.1(+), total membrane fraction
Text: The full-length coding sequences for human EP1 (NM_000955), human EP2 (NM_000956), human EP3 (NM_198717) and human EP4 (NM_000958) were cloned into pcDNA3.1(+) vector (Life Technologies, CA, USA). In order to prepare overexpressed EP 1-4 membrane in Freestyle293 cells (Life Technologies, CA, USA), the pcDNA3.1(+) vector encoding a cDNA of the relevant gene was transiently transfected into FreeStyle293 cells using 293Fectin (Life Technologies, CA, USA) according to the manufacturer instruction manual. After 2 days, cultured cells were centrifuged (1,000×g, 10 min, 4° C.) and pellets homogenized by a probe sonicator (Sonics vibracell, Sonics and Materials Inc., USA; 31% Amp, 5 sec pulse, Imin interval, 4 cycles) in ice-cold 50 mM Tris-HCl buffer (pH 7.5 at 25° C.) containing 0.5 mM EDTA, 250 mM Sucrose and 10 mM MgCl2. Cell homogenates were centrifuged (890×g, 10 min, 4° C.), and the supernatant was recovered. Total membrane fractions were isolated by ultracentrifugation (140,000×g, 60 min, 4° C.). Pellets were re-suspended in the same buffer, and stored at −80° C. until use. The protein concentration in homogenate was determined with the BCA Protein Assay Kit (Pierce Biotechnology, Inc., IL, USA) according to the manufacturer protocol.
The binding affinity of the compounds was evaluated using a competitive radioligand binding assay which measured the specific binding of [3H] PGE2 to the human EP4 receptor. Briefly, varying concentrations of NCEs were incubated with cell membrane fractions generated HEK293F cells transiently transfected with human EP4 receptor as described above. Each reaction consisted of 10 μg membrane protein and NCE in 50 mM Tris-HCl, pH-6.0 by NaOH, 10 mM MgCl2 and 0.5 mM EDTA assay buffer. Radioligand, [3H] PGE2 (American Radiochemicals Inc. Specific Activity 180 Ci/mmol), at a final of 1 nM was added to each reaction where the final assay volume was 200 μL and concentration of DMSO was adjusted to 1%. Appropriate controls included total binding in the assay (vehicle control) and control for non-specific binding. Non-specific binding was evaluated by incubating the hEP4 protein with 10 μM unlabeled PGE2 under the same assay conditions as NCEs. The reaction was incubated at room temperature for 2 hours and terminated by harvesting the reaction contents to a PEI coated GF/C filter plate (PerkinElmer). The plate was washed four times with cold 50 mM Tris-HCl, pH-7.5 wash buffer and dried at 50° C. for 2 hours or at 37° C. overnight. [3H] PGE2 bound to the protein was quantified by the addition of 25 μL of Microscint PS (PerkinElmer) and plate was read on MicroBeta2 liquid Scintillation and luminescence counter (PerkinElmer). Data was analyzed using GraphPad Prism 5 (GraphPad Software Inc., San Diego, Calif.) where non-specific binding was normalized to 0% specific binding of [3]PGE2 and vehicle control (DMSO) was normalized to 100% specific binding of [3]PGE2. Binding affinity of NCEs, Ki, was generated using One site—Fit Ki equation in GraphPad Prism 5.

[2] = target: T2, hEP4 (C6 glioma cells overexpressing hEP4) (Homo sapiens, UniProt P35408); assay: hEP4 cell based assay (cAMP), inhibition of PGE2 induced cAMP, HTRF; details: 1 μM compound, PGE2 at EC80
T2 construct: host or cells: C6 glioma cells overexpressing hEP4
Procedure: The functional assay for hEP4 activation and inhibition was carried out via the quantitative determination of agonist, PGE2, induced cAMP response using HTRF in a competitive immunoassay (Cisbio dynamic 2 kit). NCEs at varying concentrations were evaluated for inhibition of PGE2 induced increase in cAMP. Briefly, C6 glioma cells overexpressing hEP4 (Takeda) were cultured in DMEM (low glucose, pyruvate), 10% FBS (Gibco) and PenStep. The cells were harvested on the day of the assay, washed with HBSS+10 mM HEPES (pH 7.4)+0.1% BSA buffer and pre-incubated with varying concentrations of NCE. Each reaction contained 7000 cells and NCEs in HBSS+10 mM HEPES+0.1% BSA assay buffer along with PDE inhibitors IBMX and Ro 20-1724 (final concentration of each inhibitor […]). Following 15 min pre-incubation, the cells were treated with EC80 concentration of agonist PGE2 for 30 min to induce cAMP. Final volume of the assay was 6 μL and DMSO concentration was maintained at 1%. The reaction was terminated with the addition of cAMP labeled with the dye d2 in lysis buffer according to manufacturers' protocol. This was followed by the addition of the anti-cAMP antibody labeled with Cryptate according to the manufacturers' protocol. The reaction was incubated at room temperature in dark for 45 min and the plate was evaluated for fluorescence at 665 nm (FRET) and 620 nm (cryptate emission) on a Flexstation III microplate reader (Molecular Devices, Sunnyvale, Calif.) Ex max: 313 nm; Em1: 620 nm; Em2: 665 nm. Data was analyzed using GraphPad Prism 5 (GraphPad Software Inc., San Diego, Calif.) where cells treated with agonist (EC80) was normalized to 0% inhibition of hEP4 and cells treated with buffer (no agonist) was normalized to 100% inhibition of hEP4. IC50 of NCEs was generated using non-linear regression—Log(inhibitor) vs. response equation in GraphPad Prism 5.

T2 sequence (P35408 whole entry): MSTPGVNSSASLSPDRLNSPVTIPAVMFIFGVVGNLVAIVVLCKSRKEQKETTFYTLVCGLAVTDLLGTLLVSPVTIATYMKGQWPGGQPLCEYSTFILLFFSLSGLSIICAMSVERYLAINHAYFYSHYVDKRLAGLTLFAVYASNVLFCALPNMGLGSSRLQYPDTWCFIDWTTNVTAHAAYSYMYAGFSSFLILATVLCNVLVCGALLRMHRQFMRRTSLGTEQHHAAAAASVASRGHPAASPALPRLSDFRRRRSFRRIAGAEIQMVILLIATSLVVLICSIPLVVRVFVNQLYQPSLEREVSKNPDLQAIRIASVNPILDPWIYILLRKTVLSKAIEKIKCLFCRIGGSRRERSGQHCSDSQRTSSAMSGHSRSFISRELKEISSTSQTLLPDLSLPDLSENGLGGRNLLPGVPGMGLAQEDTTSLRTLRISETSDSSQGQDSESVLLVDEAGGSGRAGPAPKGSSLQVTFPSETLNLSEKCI
T1 sequence (P35408 whole entry): as above

Row | SMILES | inhibition at 0.3 µM [1] | inhibition at 1 µM [2]
1 | C[C@H](Nc1nccc2c1N(Cc1ccc(-c3ccccc3)cc1)CCO2)c1ccc(C(=O)O)cc1 [Example B30, 4-[(1S)-1-[[4-[(4-phenylphenyl)methyl]-2,3-dihydropyrido[4,3-b][1,4]oxazin-5-yl]amino]ethyl]benzoic acid] | 87% | 77%
2 | C[C@H](Nc1nccc2c1N(Cc1ccc(C(F)(F)F)o1)CCO2)c1ccc(C(=O)O)cc1 [Example B31, 4-[(1S)-1-[[4-[[5-(trifluoromethyl)-2-furyl]methyl]-2,3-dihydropyrido[4,3-b][1,4]oxazin-5-yl]amino]ethyl]benzoic acid] | 92% | 98%
3 | C[C@@H](Nc1nccc2c1N(Cc1ccc(C(F)(F)F)cc1)CCO2)c1ccc(C(=O)O)cc1 [Example B32, 4-[(1R)-1-[[4-[[4-(trifluoromethyl)phenyl]methyl]-2,3-dihydropyrido[4,3-b][1,4]oxazin-5-yl]amino]ethyl]benzoic acid] | 53% | 47%
4 | C[C@@H](Nc1nccc2c1N(Cc1cccc(Cl)c1)CCO2)c1ccc(C(=O)O)cc1 [Example B33, 4-[(1R)-1-[[4-[(3-chlorophenyl)methyl]-2,3-dihydropyrido[4,3-b][1,4]oxazin-5-yl]amino]ethyl]benzoic acid] | 66% | 36%
5 | C[C@H](Nc1nccc2c1N(Cc1ccc(C(F)(F)F)cc1)CCC2)c1ccc(C(=O)O)cc1 [Example B37, 4-[(1S)-1-[[1-[[4-(trifluoromethyl)phenyl]methyl]-3,4-dihydro-2H-1,7-naphthyridin-8-yl]amino]ethyl]benzoic acid] | 97% | 97%
6 | C[C@H](Nc1nccc2c1N(CC1CCCCC1)CCO2)c1ccc(C(=O)O)cc1 [Example B39, 4-[(1S)-1-[[4-(cyclohexylmethyl)-2,3-dihydropyrido[4,3-b][1,4]oxazin-5-yl]amino]ethyl]benzoic acid] | 100% | 93%
7 | C[C@H](Nc1nccc2c1N(CCc1cccc(Cl)c1)CCO2)c1ccc(C(=O)O)cc1 [Example B40, 4-[(1S)-1-[[4-[2-(3-chlorophenyl)ethyl]-2,3-dihydropyrido[4,3-b][1,4]oxazin-5-yl]amino]ethyl]benzoic acid] | 80% | 85%
8 | C[C@H](Nc1nccc2c1N(Cc1ccc(F)c(F)c1)CCC2)c1ccc(C(=O)O)cc1 [Example B44, 4-[(1S)-1-[[1-[(3,4-difluorophenyl)methyl]-3,4-dihydro-2H-1,7-naphthyridin-8-yl]amino]ethyl]benzoic acid] | 93% | 92%
9 | C[C@H](Nc1nccc2c1N(Cc1cccc(Cl)c1)CCC2)c1ccc(C(=O)O)cc1 [Example B45, 4-[(1S)-1-[[1-[(3-chlorophenyl)methyl]-3,4-dihydro-2H-1,7-naphthyridin-8-yl]amino]ethyl]benzoic acid] | 100% | 98%
10 | Cc1cnc(N[C@@H](C)c2ccc(C(=O)O)cc2)c2c1OCCN2Cc1cccc(C(F)(F)F)c1 [Example B46, 4-[(1S)-1-[[8-Methyl-4-[[3-(trifluoromethyl)phenyl]methyl]-2,3-dihydropyrido[4,3-b][1,4]oxazin-5-yl]amino]ethyl]benzoic acid] | 87% | 95%
11 | C[C@H](Nc1nccc2c1N(Cc1ccc(C(F)(F)F)cc1)CCO2)c1ccc(C(N)=O)cc1 [Example D1, 4-[(1S)-1-[[4-[[4-(Trifluoromethyl)phenyl]methyl]-2,3-dihydropyrido[4,3-b][1,4]oxazin-5-yl]amino]ethyl]benzamide] | 85% | 98%
12 | CONC(=O)c1ccc([C@H](C)Nc2nccc3c2N(Cc2ccc(C(F)(F)F)cc2)CCO3)cc1 [Example D2, N-Methoxy-4-[(1S)-1-[[4-[[4-(trifluoromethyl)phenyl]methyl]-2,3-dihydropyrido[4,3-b][1,4]oxazin-5-yl]amino]ethyl]benzamide] | 87% | 92%
13 | CNC(=O)c1ccc([C@H](C)Nc2nccc3c2N(Cc2ccc(C(F)(F)F)cc2)CCO3)cc1 [Example D3, N-methyl-4-[(1S)-1-[[4-[[4-(trifluoromethyl)phenyl]methyl]-2,3-dihydropyrido[4,3-b][1,4]oxazin-5-yl]amino]ethyl]benzamide] | 73% | 84%
14 | CCONC(=O)c1ccc([C@H](C)Nc2nccc3c2N(Cc2ccc(C(F)(F)F)cc2)CCO3)cc1 [Example D4, N-ethoxy-4-[(1S)-1-[[4-[[4-(trifluoromethyl)phenyl]methyl]-2,3-dihydropyrido[4,3-b][1,4]oxazin-5-yl]amino]ethyl]benzamide] | 92% | 93%
15 | C[C@H](Nc1nccc2c1N(Cc1ccc(C(F)(F)F)cc1)CCO2)c1ccc(C(=O)NOCc2ccccc2)cc1 [Example D5, N-benzyloxy-4-[(1S)-1-[[4-[[4-(trifluoromethyl)phenyl]methyl]-2,3-dihydropyrido[4,3-b][1,4]oxazin-5-yl]amino]ethyl]benzamide] | 88% | 90%
16 | C[C@H](Nc1nccc2c1N(Cc1ccc(C(F)(F)F)cc1)CCO2)c1ccc(C#N)cc1 [Example E1, 4-[(1S)-1-[[4-[[4-(Trifluoromethyl)phenyl]methyl]-2,3-dihydropyrido[4,3-b][1,4]oxazin-5-yl]amino]ethyl]benzonitrile] | 92% | 91%
17 | C[C@H](Nc1nccc2c1N(Cc1ccc(C(F)(F)F)cc1)CCO2)c1ccc(-c2nnn[nH]2)cc1 [Example F1, N-[(1S)-1-[4-(1H-Tetrazol-5-yl)phenyl]ethyl]-4-[[4-(trifluoromethyl)phenyl]methyl]-2,3-dihydropyrido[4,3-b][1,4]oxazin-5-amine] | 100% | 90%
18 | C[C@H](Nc1ncc(Cl)c2c1N(Cc1ccc(C(F)(F)F)cc1)CCO2)c1ccc(C(=O)O)cc1 [Example G1, 4-[(1S)-1-[[8-Chloro-4-[[4-(trifluoromethyl)phenyl]methyl]-2,3-dihydropyrido[4,3-b][1,4]oxazin-5-yl]amino]ethyl]benzoic acid] | 100% | 92%
